PubChem BioAssay (NCI)
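These data come from cells grown in 96-well plates and exposed to compound for 48 hours at five concentrations. TGI: concentration producing complete growth inhibition.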

Assays:
Experiment in all cases: DTP human tumour cell line panel, 48 h
[1] = test system: T-47D breast
[2] = test system: MDA-MB-435
[3] = test system: LOX IMVI melanoma
[4] = test system: SW-620 colon
[5] = test system: IGROV1 ovarian
[6] = test system: HL-60(TB) leukemia
[7] = test system: KM12 colon
[8] = test system: OVCAR-8 ovarian
[9] = test system: NCI/ADR-RES ovarian
[10] = test system: TK-10 renal
[11] = test system: M14 melanoma
[12] = test system: MDA-MB-231 breast
[13] = test system: SNB-75 CNS
[14] = test system: HCT-116 colon
[15] = test system: NCI-H23 lung
[16] = test system: NCI-H522 lung
[17] = test system: SF-539 CNS
[18] = test system: NCI-H460 lung

| Structure (SMILES) | TGI [1] [µM] | TGI [2] [µM] | TGI [3] [µM] | TGI [4] [µM] | TGI [5] [µM] | TGI [6] [µM] | TGI [7] [µM] | TGI [8] [µM] | TGI [9] [µM] | TGI [10] [µM] | TGI [11] [µM] | TGI [12] [µM] | TGI [13] [µM] | TGI [14] [µM] | TGI [15] [µM] | TGI [16] [µM] | TGI [17] [µM] | TGI [18] [µM] |
| --- | --- | --- | --- | --- | --- | --- | --- | --- | --- | --- | --- | --- | --- | --- | --- | --- | --- | --- |
| O=C(CC(=O)N(C(=O)c1ccccc1)c1ccc(Cl)cc1)N/N=C\c1ccccc1O | > 100 | > 100 | > 100 | > 100 | > 100 | > 100 | > 100 | > 100 | > 100 | > 100 | > 100 | > 100 | 67.4 | > 100 | > 100 | > 100 | > 100 | > 100 |
| COC(=O)[C@@]12CC[C@]1(C(=O)OC)C1C(C)=CC(=O)O[C@@]12C (stereo partly specified) | > 100 | > 100 | > 100 | > 100 | > 100 | > 100 | > 100 | > 100 | > 100 | > 100 | > 100 | > 100 | > 100 | > 100 | > 100 | > 100 | > 100 | > 100 |
| COc1ccc(-c2nc(N)c(C#N)c3c2CCSc2ccc(C)cc2-3)cc1OC | > 31.5 | > 100 | > 50.2 | > 100 | > 91.2 | 17.7 | 34.2 | > 73.6 | > 58 | > 100 | > 100 | 35.8 | 71.3 | 30.7 | > 61 | > 100 | 58.9 | > 61.5 |
| C[C@@H]1CCC2[C@@H](C)[C@H](O[C@H]3O[C@@H]4O[C@@]5(C)CCC6[C@H](C)CCC([C@H]3C)[C@]64OO5)O[C@@H]3O[C@@]4(C)CCC1[C@@]23OO4 (stereo partly specified) | 22.2 | 21.6 | 1.58 | 16.5 | 18.4 | 3.81 | 13.3 | 16.7 | 15.5 | 17.2 | 20.6 | 13.1 | 14.5 | 12.7 | 13.3 | 12.9 | 21.9 | 17 |
| COc1c(C(=O)/C(=N/Nc2ccccc2)C(C)=O)c(O)c(OC)c2occc12 | > 100 | > 100 | > 100 | > 100 | > 100 | > 100 | > 100 | > 100 | > 100 | > 100 | > 100 | > 100 | 81.8 | > 100 | > 100 | > 100 | > 100 | > 100 |
| CC(=O)Nc1ccc2c3c(cc(O)c2c1)N(C(=O)CCCC(=O)Nc1ccc2c4c(cc(O)c2c1)N(C(=O)OC(C)(C)C)CC4CCl)CC3CCl (stereo unspecified) | 12.7 | 2 | > 12.4 | > 50 | > 50 | 1.71 | 22.7 | > 50 | > 50 | 35 | 13.2 | 3.74 | 12.6 | > 50 | 16.7 | 3.85 | > 50 | 21.5 |
| CC(=O)c1c2c(cc3c1CC1(Cc4cc5c(cc4C1=O)CCC5)C3)CCC2 (stereo unspecified) | > 100 | > 100 | > 100 | > 100 | > 100 | > 59.4 | > 100 | > 100 | > 100 | > 100 | > 100 | > 100 | > 100 | > 100 | > 100 | > 100 | > 100 | > 100 |
| c1ccc2c(c1)ccc1ncccc12 | > 100 | > 100 | > 100 | > 100 | > 100 | > 100 | > 100 | > 100 | > 100 | > 100 | > 100 | > 100 | > 100 | > 100 | > 100 | > 100 | > 100 | > 100 |
| COC(=O)C(/C(=N/N)C(=O)Nc1ccc(C)c(C)c1)c1nc2ccc(Cl)cc2[nH]c1=O (stereo unspecified) | > 100 | > 100 | > 100 | > 100 | > 100 | > 100 | > 100 | > 100 | > 100 | > 100 | > 100 | > 100 | > 100 | > 100 | > 100 | > 100 | > 100 | > 100 |
| OC(c1ccsc1)c1cc2ccccc2s1 (stereo unspecified) | > 10 | > 10 | > 10 | > 10 | > 10 | > 10 | > 10 | > 10 | > 10 | > 10 | > 10 | > 10 | > 10 | > 10 | > 10 | > 10 | > 10 | > 10 |
| O=C(O)CN1CCNCCN(CC(=O)O)CCNCC1 | > 100 | > 100 | > 100 | > 100 | > 100 | 15.2 | > 100 | > 100 | > 100 | > 100 | > 100 | > 100 | 98.9 | > 100 | > 100 | > 100 | > 100 | > 50.5 |
| Cc1cc(=O)oc2c(CNC(C)C(=O)O)c(O)ccc12 (stereo unspecified) | > 100 | > 100 | > 100 | > 100 | > 100 | > 100 | > 100 | > 100 | > 100 | > 100 | > 100 | > 100 | > 100 | > 100 | > 100 | > 100 | > 100 | > 100 |
